In experiment [1] the test system is anti-serum. The settings on record: Abraham and Odell; iodinated at positions 2 and 4; cited from earlier work.
For experiment [2], the system named is breast cancer tumor tissue. The settings on record: injected; patients responding to endocrine treatment vs those who do not respond; cited from earlier work.
Experiment [3] concerns antiserum against estradiol-17 beta. Kind of experiment: Radioimmunoassay: competition of nonradioactive estradiol with ^125 I estradiol-17 beta for antiserum. Type of experiment: binding. The settings on record: antiserum 1:10,000 or 1:20,000; ^125 I estradiol-17 beta 70 Ci/mM. The protocol:
The procedure of this assay are identical as described by the instant inventor and authors C. […] After incubation, the unbound hormone was removed by charcoal adsorption.

Molecules are shown by their SMILES.

Regarding `C[C@]12CC[C@@H]3c4cc(I)c(O)c(I)c4CC[C@H]3[C@@H]1CC[C@@H]2O`, in experiment [1], the binding to anti-serum entry was “unable to bind the anti-serum”.

As for `C[C@]12CC[C@@H]3c4ccc(O)cc4CC[C@H]3[C@@H]1CC[C@@H]2O` [tritiated estradiol], in experiment [2], the “concentration of tritiated hormone in tumor tissue” value is “usually concentrate more tritiated hormones in their tumor tissue”.

`C[C@]12CC[C@@H]3c4ccc(O)cc4CC[C@H]3[C@@H]1CC[C@@H]2O` [unlabelled estradiol, estradiol]: the “effect of unlabelled estradiol on percent bound ^125 I estradiol” value in experiment [3] was “the percent bound ^125 I estradiol decreases”.

The record behind these values is US4321208A, “Preparation of directly iodinated steroid hormones and related compounds” (priority 1976, dated 1982).
